Assay results from patent US20110039721A1, “METHOD FOR PREDICTION ABOUT CARCINOGENICITY OF SUBSTANCE IN RODENT” (Chemicals Evaluation and Research Institute, priority 2007, published 2011).
Where two headings read alike, the source gives them in different places.

How the values were obtained:
[1] = system: mRNA expressed from the genes (A) to (D) in rat liver; test: Behavior of genes (mRNA expression level, oligo-DNA microarray) in rat liver after 28-day oral administration; assay type: in vivo
How it was run: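 Male F344 SPF rats, 5 weeks old, four per group, received carcinogens, non-carcinogens or solvent vehicle by oral gavage once daily for 28 days. Liver total RNA was then extracted. Changes of ≥1.5-fold or ≤1/1.5 versus vehicle control, in a consistent direction across carcinogens, counted as significant.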

[2] = system: liver; settings: cited from earlier work
[3] = system: rodent; settings: cited from earlier work
[4] = cited from earlier work
[5] = gene group (A), Unigene No. Rn.167075
[6] = gene group (C), Unigene No. Rn.120914

O=C([O-])c1ccccc1.[Na+] [TS084, Sodium benzoate]
Behavior of gene caused by administration of chemical substance, Gene No. 4846 ([1]; gene group (A), Unigene No. Rn.144554): −
Behavior of gene caused by administration of chemical substance, Gene No. 2026 [1, 5]: −
Behavior of gene caused by administration of chemical substance, Gene No. 4218 [1, 5]: −
Behavior of gene caused by administration of chemical substance, Gene No. 6182 ([1]; gene group (A), Unigene No. Rn.5834): +
Behavior of gene caused by administration of chemical substance, Gene No. 5600 ([1]; gene group (A), Unigene No. Rn.9836): −
Behavior of gene caused by administration of chemical substance, Gene No. 1494 ([1]; gene group (B), Unigene No. Rn.1430): +
Behavior of gene caused by administration of chemical substance, Gene No. 2045 ([1]; gene group (B), Unigene No. Rn.19329): −
Behavior of gene caused by administration of chemical substance, Gene No. 2203 ([1]; gene group (B), Unigene No. Rn.21240): −
Behavior of gene caused by administration of chemical substance, Gene No. 533 ([1]; gene group (C), Unigene No. Rn.106184): +
Behavior of gene caused by administration of chemical substance, Gene No. 725 ([1]; gene group (C), Unigene No. Rn.108075): −
Behavior of gene caused by administration of chemical substance, Gene No. 1163 ([1]; gene group (C), Unigene No. Rn.11766): −
Behavior of gene caused by administration of chemical substance, Gene No. 4973 ([1]; gene group (C), Unigene No. Rn.118529): +
Behavior of gene caused by administration of chemical substance, Gene No. 4095 ([1]; gene group (C), Unigene No. Rn.119024): −
Behavior of gene caused by administration of chemical substance, Gene No. 1334 [1, 6]: −
Behavior of gene caused by administration of chemical substance, Gene No. 6620 [1, 6]: −
Behavior of gene caused by administration of chemical substance, Gene No. 6303 ([1]; gene group (C), Unigene No. Rn.123063): −
Behavior of gene caused by administration of chemical substance, Gene No. 5878 ([1]; gene group (C), Unigene No. Rn.143213): −
Behavior of gene caused by administration of chemical substance, Gene No. 1131 ([1]; gene group (C), Unigene No. Rn.144946): −
Behavior of gene caused by administration of chemical substance, Gene No. 1562 ([1]; gene group (C), Unigene No. Rn.14744): −
Behavior of gene caused by administration of chemical substance, Gene No. 1741 ([1]; gene group (C), Unigene No. Rn.1647): −
Behavior of gene caused by administration of chemical substance, Gene No. 893 ([1]; gene group (C), Unigene No. Rn.164817): −
Behavior of gene caused by administration of chemical substance, Gene No. 6026 ([1]; gene group (C), Unigene No. Rn.167685): −
Behavior of gene caused by administration of chemical substance, Gene No. 154 ([1]; gene group (C), Unigene No. Rn.185941): −
Behavior of gene caused by administration of chemical substance, Gene No. 1993 ([1]; gene group (C), Unigene No. Rn.18728): −
Behavior of gene caused by administration of chemical substance, Gene No. 813 ([1]; gene group (C), Unigene No. Rn.201760): −
Behavior of gene caused by administration of chemical substance, Gene No. 2494 ([1]; gene group (C), Unigene No. Rn.23969): −
Behavior of gene caused by administration of chemical substance, Gene No. 2546 ([1]; gene group (C), Unigene No. Rn.24561): −
Behavior of gene caused by administration of chemical substance, Gene No. 3776 ([1]; gene group (C), Unigene No. Rn.43232): −
Behavior of gene caused by administration of chemical substance, Gene No. 3929 ([1]; gene group (C), Unigene No. Rn.4620): −
Behavior of gene caused by administration of chemical substance, Gene No. 1119 ([1]; gene group (C), Unigene No. Rn.9757): −
Behavior of gene caused by administration of chemical substance, Gene No. 6742 ([1]; gene group (C), Unigene No. Rn.9779): +
Behavior of gene caused by administration of chemical substance, Gene No. 5634 ([1]; gene group (C), Unigene No. Rn.9862): −
Behavior of gene caused by administration of chemical substance, Gene No. 5726 ([1]; gene group (D), Unigene No. Rn.9939): −
Liver carcinogenicity ([2]; classification of the substance (Cr+/Cr−)): Cr−
Carcinogenicity ([3]; classification of the substance (C+/C−)): C−
Mutagenicity by Ames test ([4]; classification of the substance (M+/M−)): M−

C=CCc1ccc(OC)c(OC)c1 [TS086, Methyleugenol]
Behavior of gene caused by administration of chemical substance ([1]; Gene No. 154, Rn.185941, group (C)): −
Behavior of gene caused by administration of chemical substance ([1]; Gene No. 533, Rn.106184, group (C)): +
Behavior of gene caused by administration of chemical substance ([1]; Gene No. 725, Rn.108075, group (C)): −
Behavior of gene caused by administration of chemical substance ([1]; Gene No. 813, Rn.201760, group (C)): −
Behavior of gene caused by administration of chemical substance ([1]; Gene No. 893, Rn.164817, group (C)): −
Behavior of gene caused by administration of chemical substance ([1]; Gene No. 1119, Rn.9757, group (C)): −
Behavior of gene caused by administration of chemical substance ([1]; Gene No. 1131, Rn.144946, group (C)): −
Behavior of gene caused by administration of chemical substance ([1]; Gene No. 1163, Rn.11766, group (C)): −
Behavior of gene caused by administration of chemical substance ([1]; Gene No. 1334, Rn.120914, group (C)): −
Behavior of gene caused by administration of chemical substance ([1]; Gene No. 1494, Rn.1430, group (B)): −
Behavior of gene caused by administration of chemical substance ([1]; Gene No. 1562, Rn.14744, group (C)): −
Behavior of gene caused by administration of chemical substance ([1]; Gene No. 1741, Rn.1647, group (C)): −
Behavior of gene caused by administration of chemical substance ([1]; Gene No. 1993, Rn.18728, group (C)): −
Behavior of gene caused by administration of chemical substance ([1]; Gene No. 2026, Rn.167075, group (A)): −
Behavior of gene caused by administration of chemical substance ([1]; Gene No. 2045, Rn.19329, group (B)): −
Behavior of gene caused by administration of chemical substance ([1]; Gene No. 2203, Rn.21240, group (B)): −
Behavior of gene caused by administration of chemical substance ([1]; Gene No. 2494, Rn.23969, group (C)): −
Behavior of gene caused by administration of chemical substance ([1]; Gene No. 2546, Rn.24561, group (C)): −
Behavior of gene caused by administration of chemical substance ([1]; Gene No. 3776, Rn.43232, group (C)): −
Behavior of gene caused by administration of chemical substance ([1]; Gene No. 3929, Rn.4620, group (C)): −
Behavior of gene caused by administration of chemical substance ([1]; Gene No. 4095, Rn.119024, group (C)): −
Behavior of gene caused by administration of chemical substance ([1]; Gene No. 4218, Rn.167075, group (A)): −
Behavior of gene caused by administration of chemical substance ([1]; Gene No. 4846, Rn.144554, group (A)): +
Behavior of gene caused by administration of chemical substance ([1]; Gene No. 4973, Rn.118529, group (C)): −
Behavior of gene caused by administration of chemical substance ([1]; Gene No. 5600, Rn.9836, group (A)): +
Behavior of gene caused by administration of chemical substance ([1]; Gene No. 5634, Rn.9862, group (C)): −
Behavior of gene caused by administration of chemical substance ([1]; Gene No. 5726, Rn.9939, group (D)): −
Behavior of gene caused by administration of chemical substance ([1]; Gene No. 5878, Rn.143213, group (C)): −
Behavior of gene caused by administration of chemical substance ([1]; Gene No. 6026, Rn.167685, group (C)): −
Behavior of gene caused by administration of chemical substance ([1]; Gene No. 6182, Rn.5834, group (A)): +
Behavior of gene caused by administration of chemical substance ([1]; Gene No. 6303, Rn.123063, group (C)): −
Behavior of gene caused by administration of chemical substance ([1]; Gene No. 6620, Rn.120914, group (C)): −
Behavior of gene caused by administration of chemical substance ([1]; Gene No. 6742, Rn.9779, group (C)): −
Liver carcinogenicity ([2]; classification Cr+/Cr−): Cr+
Carcinogenicity ([3]; classification C+/C−): C+
Mutagenicity by Ames test ([4]; classification M+/M−): M−
